This passage reports TGI and GI50 results from PubChem BioAssay (NCI).

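All cell lines were grown in 96-well plates and treated with compound for 48 hours. At the GI50, growth is halved. TGI: total growth inhibition.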 A value given as a limit tells only on which side of the number the result lay.

What all share (experiment): NCI anticancer screen, dose series, 48 h
For test [1], the system named is SK-MEL-2 melanoma.
Test [2] deals with NCI-H522 lung.
The subject of test [3] is PC-3 prostate.
Test [4] has as its system MCF7 breast.
The test system of test [5] is SR leukemia.
In test [6] the test system is MDA-MB-231 breast.
Test [7] relates to RPMI-8226 leukemia.
Test [8] has as its system DU-145 prostate.
Test [9] has as its system HS 578T breast.
The subject of test [10] is SF-539 CNS.
Test [11] relates to MDA-MB-435.
Test [12] deals with MDA-N.

With `Cc1[nH]nc(C(F)(F)F)c1N=NN1CCOCC1`, the TGI in test [1] was found to be 27.1 µM; in test [2], 8.7 µM; in test [3], 24.8 µM; in [4], 21 µM; in [5] it was 2.77 µM; in test [6], 27.1 µM. In addition, the TGI in [7] was 5.06 µM; in test [8] it was 13.4 µM; in test [9] it was 40.5 µM; in test [10] it was 28.6 µM; in test [11] it was 26 µM.
Consider `COc1ccc2cc(/C=N/NC(=O)Nc3ccccc3)ccc2c1`, for which the TGI in [1], in test [12], in test [3], in [4], in test [5] and in [6] was more than 100 µM throughout. The TGI in test [7], in test [8], in test [9] and in [11] was more than 100 µM each time.
Turning to `O=c1cnn(C/C=C/CO)c(=O)[nH]1`, the TGI in test [1], in test [12], in test [2], in test [3], in [4] and in test [5] was more than 100 µM throughout. The TGI in test [6], in test [7], in test [8], in [9] and in [11] was more than 100 µM each time.
On to `CN(C)CCCN1CCC2(CCC(C(C)(C)C)CC2)CC1`, for which the TGI turned out to be 3.26 µM in [1]; 2.44 µM in [12]; 6.07 µM in test [2]; 10.8 µM in [3]; 3.07 µM in test [4]; 4.85 µM in test [5]. The TGI in [6] amounted to 3.91 µM; in test [7], 10.5 µM; in test [8], 19.3 µM; in test [9], 4.89 µM; in test [10] it was 3.89 µM; in [11] it was 1.19 µM.
With `CC(OC(C)(C)C)[C@H](NC(=O)OCC(Cl)(Cl)Cl)C(=O)O` (some centres not stated), the TGI in test [1], in test [2], in test [5], in test [7] and in [10] was more than 100 µM throughout.
In the case of `CCC(/C=C/C1OC(=O)C=CC1C)=C\C(C)C/C=C/C(C)=C/C(C)C(=O)C(C)C(O)C(C)C/C(C)=C/C(=O)O` (configuration not stated), the GI50 in test [1] was 0.0281 nM; in test [2], 0.00622 nM; in test [4], less than 1 pM; in [7] it was 3.11 pM; in test [10], 0.00202 nM. The TGI stood at 0.000118 µM in test [12], 2.28e-05 µM in test [5], 0.000594 µM in [9] and 2.64e-05 µM in test [11].
As for `S=C(S)NCNC(=S)S.[Zn+2]`, the TGI in [12], in test [3], in test [4], in test [6], in test [7] and in test [8] was more than 100 µM in each case. The TGI in test [9], in [10] and in test [11] was more than 100 µM throughout.
For the compound `C[C@H](CCC(=O)O)[C@H]1CC[C@H]2[C@@H]3CC[C@@H]4C[C@H](O)CC[C@]4(C)[C@H]3C[C@H](O)[C@]12C`, the TGI in test [1] was more than 100 µM; in test [12] it was more than 100 µM; in test [2] it was 86.7 µM; in test [3], more than 100 µM; in [4] it was more than 100 µM; in [6], more than 100 µM. Besides, the TGI in test [7] was 57.6 µM; in test [8], more than 100 µM; in [9] it was more than 100 µM; in test [10], 99 µM; in test [11] it was more than 100 µM.
Consider `CC1(CCOCc2ccccc2)NC(=O)NC1=O` (configuration not stated), for which the TGI in test [1], in test [12], in test [2], in [3], in test [5] and in test [6] was more than 100 µM each time. Further, the TGI in test [8], in test [9] and in test [11] was more than 100 µM each time.
Consider `O=C(Cn1c[n+](CC(=O)c2ccc(-c3ccccc3)cc2)c2ccccc21)Nc1cccc2cccnc12`, for which the GI50 is 1530 nM in [2]; 1.03 µM in [3]; 2.22 µM in [8]; 1.7 µM in [9]; 1620 nM in test [10]. For the same compound, the TGI in test [2] is 3.25 µM; in [3], 2.29 µM; in [8] it was 5.71 µM; in test [9] it was 4.3 µM; in test [10], 3.06 µM.
In the case of `NCc1ccccc1-c1c2nc(c(-c3ccccc3CN)c3ccc([nH]3)c(-c3ccccc3CN)c3nc(c(-c4ccccc4CN)c4ccc1[nH]4)C=C3)C=C2`, the figures for the TGI in test [1] and in test [7] were 73.9 µM and 32.3 µM, respectively.
Turning to `Cn1c(=O)c(-c2ccccc2)c(N=[N+]=[N-])c2ccccc21`, the TGI in test [12] is more than 100 µM; in [2], 75.5 µM; in [3], more than 100 µM; in [4], more than 100 µM; in test [5], 75.4 µM; in [6], more than 100 µM. Further, the TGI in [8], in test [9], in test [10] and in test [11] was more than 100 µM throughout.
With `O=C(O)CCC(NC(=O)c1ccc(Nc2nc3cc(C(F)(F)F)ccc3nc2-c2ccccc2)cc1)C(=O)O` (configuration not stated), the TGI in [1] is more than 100 µM; in [2], more than 91.6 µM; in [4], more than 100 µM; in test [7] it was more than 100 µM; in [10], more than 100 µM.
Consider `Cn1c(=O)c2c(nc(Cc3ccccc3)n2CC(=O)O)n(C)c1=O`, for which the TGI in test [1], in test [12], in [2], in test [3], in test [6] and in [8] was more than 100 µM each time. The TGI in test [9] and in test [11] was more than 100 µM each time.
